Laboratory results: publication PMC7459852, “Identification of 6-(piperazin-1-yl)-1,3,5-triazine as a chemical scaffold with broad anti-schistosomal activities” (Wellcome Open Research, 2020)

Assays:
[1] = tested on: S. mansoni miracidia; test: Miracidia to sporocyst transformation screens; type: cell-based, Schistosoma mansoni; settings: 48 h
Protocol: Following hatching of S. mansoni eggs, miracidia were incubated on ice for 15 min and then centrifuged at 700 x g for 5 min at 4°C. The miracidia pellet was then re-suspended in 5 ml of Chernin's balanced salt solution (CBSS), subjected to pelleting and two subsequent washes (all at 700 x g for 5 min at 4°C). Afterwards, the supernatant was carefully removed with a serological pipette and the miracidia-enriched pellet was resuspended with CBSS supplemented with 1 mg/ml each of glucose and trehalose and 500 µl of Penicillin-Streptomycin (containing 10,000 units penicillin and 10 mg streptomycin/ml, P4333, Sigma-Aldrich). In preparation for the screens, CBSS (250 µl) was aliquoted to each well of a 24-well plate followed by addition of each compound in DMSO (1 mM concentration in 1% DMSO) or DMSO alone (1%, negative control). Next, approximately 20-25 miracidia (in 250 µl of CBSS) were aliquoted to each well. […] Both preliminary and secondary screens were performed in duplicate on two separate occasions (two independent biological replicates). Miracidia were incubated for 48 h at 26°C before being evaluated using an Olympus inverted light microscope for morphological and behavioural changes differing from the control wells. Dead, partially transformed and fully transformed miracidia were enumerated in the DMSO control and the assay plates as previously described, [23], [59]. […] Absence of ciliated plates attached to the surface of the parasite and formation of sporocyst tegument defined the so-called “fully transformed” parasites.

[2] = tested on: S. mansoni adult worms; test: Adult worm screens (WormassayGP2 motility, egg count); type: cell-based, Schistosoma mansoni; settings: 72 h
Protocol: For compound screening, adult worms (three worm pairs/well for compound 7 and the hit compounds of set two; one worm pair/well for the hit compounds of set three) were transferred into wells of a 48-well tissue culture plate containing 1 ml of adult worm media. Adult worms were treated with compounds previously identified as hits at 10 µM on 72 h cultured schistosomula. Worms were dosed with an appropriate volume of 10 mM stock solution of each compound (in DMSO) to have a concentration range of 50 – 6.25 µM (up to 0.5% DMSO, primary screen of compound 7). Secondary screens were performed on the structural analogues of compound 7 (only the schistosomula hits at 10 µM) at a single concentration (12.5 µM) and compared to the same concentration of the parental compound (included in the screen as reference). DMSO (0.5%) and praziquantel (10 µM in 0.5% DMSO) were also included as negative and positive control treatments (both primary and secondary screens). Treated adult worms were incubated for 72 h in a humidified environment at 5% CO 2 at 37°C. Parasite motility after drug treatment was assessed by a digital image processing-based system (WormassayGP2, see Software availability) modified after Wormassay, [56], [57]. Egg production was assessed according to the methodology described by Edwards et al..

Which results are given for `c1ccc(Nc2nc(N3CCCC3)nc(N3CCNCC3)n2)cc1` [Compound 7]?
inhibition of miracidia transformation ([1]; 5, 2 and 0.5 µM): 20–25%; effect on miracidia ([1]; 50 and 25 µM): completely lethal; inhibition at 10 µM ([1]; Schistosoma mansoni, 10 µM): 45%; effect on adult worms (motility) ([2]; 12.50 and 6.25 µM): worm recovery began at 12.50 µM and remained at 6.25 µM; effect on adult worms (motility) ([2]; 50 and 25 µM): lethal effect; egg production (worm fecundity) ([2]; titration 50 - 6.25 µM, effect up to and including 12.50 µM): particularly effective in inhibiting worm fecundity
